Measured values as given in US20240207337A1, “MYCELIAL CULTURE OF Irpex lacteus AND COMPOSITION COMPRISING SAME AS ACTIVE INGREDIENT FOR PREVENTION AND TREATMENT OF DIABETES MEILLITUS” (LONGRUNN MEDICAL FOOD PTE. LTD., priority 2021, published 2024).

Experiments:
Type in all cases: in vivo
db/db mice [1] = test: Blood glucose level after repeated oral administration for three weeks in db/db mice; conditions: G5: Diabex 400 mg/kg/day oral
Procedure: In this experiment, the test material lyophilizate of a mycelial culture of Irpex lacteus KACC 83046BP was orally administered to the db/db mice, which are an animal model of diabetes, for three weeks and examined for hypoglycemic effect. This test was conducted in the Local Food Institute of Gimcheon University.
For use in tests, sterile water for injection (excipient) was used as a negative control while Diabex tablet ([…], 500 mg) commercially available from Dai Han Pharm. Co., Ltd. (Kyeonggi-do) was used as a positive control. A test substance was divided into three groups: high-, medium-, and low-dose groups, which were prepared in suspension by adding the same amount of the test substance to different amounts of the sterile water for injection.
Blood glucose levels were measured once a week for three weeks during the experiment. In order to objectively measure blood glucose levels, all experimental animals were blocked from eating feed 6 hours before blood glucose measurement on the day of blood glucose measurement. Blood glucose levels were measured using a portable blood glucose meter (Accu-Check Performa/USA).

db/db mice [2] = test: Oral glucose tolerance test (OGTT) in db/db mice; conditions: G5: Diabex 400 mg/kg oral
Procedure: (1) The OGTT measures the body's ability to use glucose.
(2) After 6 days of acclimatization, OGTT test animals were fasted for 16 hours before OGTT (water provided).
(3) Blood glucose was measured 30 minutes before administration of the test substance and once again 30 minutes later, that is, just before glucose administration.
(4) At 30, 60, 90, 120, and 240 min after administration of oral glucose at a dose of 2 g/10 mL/kg, blood was taken from tail veins and measured for glucose levels using a blood glucose meter (Accu-Check Performa).

db/db mice [3] = test: Histopathological examination of pancreas (H&E) in db/db mice; conditions: G5: Diabex 400 mg/kg/day oral, three weeks
Procedure: All the experimental animals were anesthetized by inhalation with CO2 and autopsied by laparotomy, and blood was collected from the posterior vena cava. After blood collection, the animals were killed by excision of the abdominal aorta and posterior vena cava and exsanguination. For histopathological examination, hematoxylin & eosin (H&E) staining was conducted to measure numbers and diameters of pancreatic islets and proportions of zymogen granules per unit area of exocrine pancreatic portions.

db/db mice [4] = test: Hemato-biochemical examination in db/db mice; conditions: G5: Diabex 400 mg/kg/day oral, three weeks
Procedure: Of the blood collected for clinical pathology on the day of the end of the experiment, about 200 μL was used for analyzing glycated hemoglobin (HbA1c) while the remainder was left for 30 min or longer at room temperature in a vacutainer tube containing a clot activator and then centrifuged at 3000 rpm for 10 min. The serum obtained by centrifugation was transferred to a new tube and subjected to hemato-biochemical examination.
Using a hemato-biochemical analyzer, whole blood and sera which had been stored separately were subjected to hemato-biological examination for total cholesterol (TCHO), aspartate aminotransferase (AST), high-density lipoprotein (HDL), low-density lipoprotein (LDL), alanine aminotransferase (ALT), and glycated hemoglobin (HbA1c).

db/db mice [5] = test: Blood insulin and c-peptide measurement (ELISA) in db/db mice; conditions: three weeks
Text: C-peptide is a substance that is secreted when proinsulin, a precursor of insulin, is degraded and released. The peptide, although lacking bioactivity, accounts for the secretion state of insulin. In addition, with a long half-life, C-peptide is used as an index to evaluate insulin secretion. The sera stored in separation were quantitatively assayed for insulin and c-peptide, using an ELISA kit (Shibayagi, AKRIN-011T and AKRCP-031).

Substance: metformin phosphate [Diabex]
- Blood glucose level (db/db mice [1]; Day 1 (first day of administration)): 365 ± 24 mg/dL
- Blood glucose level (db/db mice [1]; Week 1): 371 ± 12 mg/dL
- Blood glucose level (db/db mice [1]; Week 2): 452 ± 13 mg/dL
- Blood glucose level (db/db mice [1]; Week 3): 436 ± 11 mg/dL
- Blood glucose level (OGTT) (db/db mice [2]; 0 min (just before glucose 2 g/kg)): 385 ± 33 mg/dL
- Blood glucose level (OGTT) (db/db mice [2]; 30 min after glucose): 421 ± 29 mg/dL
- Blood glucose level (OGTT) (db/db mice [2]; 60 min after glucose): 343 ± 12 mg/dL
- Blood glucose level (OGTT) (db/db mice [2]; 90 min after glucose): 246 ± 26 mg/dL
- Blood glucose level (OGTT) (db/db mice [2]; 120 min after glucose): 208 ± 11 mg/dL
- Blood glucose level (OGTT) (db/db mice [2]; 240 min after glucose): 174 ± 22 mg/dL
- Blood glucose level (OGTT) (db/db mice [2]; −30 min (before administration)): 265 ± 11 mg/dL
- Diameter of islet (db/db mice [3]): 126.25 ± 5.3 μm
- No. of pancreatic Islets (db/db mice [3]): 6.25 ± 0.1 islets/cm^2
- Zymogen granules (db/db mice [3]): 41.39 ± 0.7 %/mm^2 of exocrine pancreas
- ALT (db/db mice [4]): 72.1 ± 4.5 U/L
- AST (db/db mice [4]): 116.5 ± 4.6 U/L
- HDL (db/db mice [4]): 88.2 ± 4.2 mg/dL
- HbA1c (db/db mice [4]): 6.8 ± 0.2 %
- LDL (db/db mice [4]): 25.9 ± 2.7 mg/dL
- TCHO (db/db mice [4]): 116.7 ± 3.2 mg/dL
- Blood insulin compared to the negative control (G1) (db/db mice [5]; G5 (Diabex 400 mg/kg) oral): significant decrease
- Blood C-peptide level (db/db mice [5]; G5: Diabex 400 mg/kg/day oral): 459.7 ± 82.3 pg/mL
- Blood insulin level (db/db mice [5]; G5: Diabex 400 mg/kg/day oral): 1.96 ± 0.39 ng/mL
